Source: PMC7407272, “Induction of Lysosome Membrane Permeabilization as a Therapeutic Strategy to Target Pancreatic Cancer Stem Cells” (Cancers, 2020)

What was measured:
PDAC1 3D spheres = test: Viability curves on PDAC1 3D spheres; assay type: cell-based; settings: Homo sapiens, 30 h
Excerpt: The PDAC patient-derived xenograft (PDX) Panc354 (referred to hereafter as PDAC3) was obtained from Dr. Manuel Hidalgo under a Material Transfer Agreement with the Spanish National Cancer Centre (CNIO), Madrid, Spain (Reference no. I409181220BSMH). PDAC1, PDAC2 and PDAC4 PDXs were established from primary patient resected tumors. Samples were provided by the BioBank Hospital Ramón y Cajal-IRYCIS (PT13/0010/0002), integrated in the Spanish National Biobanks Network and they were processed following standard operating procedures with the appropriate approval of the Ethical and Scientific Committees (Control no. No. Control: DE-BIOB-73 AC65, RG.BIOB-96 REV, and CI-BIOB-08-10-01 rev), with informed consent and according to Declaration of Helsinki principles. […]
Pancreatic CSC spheres were generated as previously described in ultra-low attachment plates (Corning) using CSC media: serum-free DMEM/F12 medium (1:1; #21331-020; Gibco, Waltham, MA, USA), supplemented with Pen/Strep (1:100; #1500-063; Gibco, Waltham, MA, USA), Fungizone (1:250; #15290-018; Gibco), L-Glutamine (1:100; #25030-024; Gibco, Waltham, MA, USA), B-27 (1:50; #17504-044; Gibco, Waltham, MA, USA) and basic fibroblast growth factor (FGF-b) (1:5000; Gibco, Waltham, MA, USA). […] To quantify spheres of > 40 μm, 1 mL of sample volume was analyzed with a CASY® Cell Counter (Roche Applied Sciences, Mannheim, Germany). […]

ABL1-nonP = target: T1, ABL1-nonP (Homo sapiens, UniProt P00519); test: KINOMEscan; assay type: binding; settings: read-out: % Ctrl
T1 construct: purchased DiscoveRx KINOMEscan
T1 sequence (P00519 whole entry): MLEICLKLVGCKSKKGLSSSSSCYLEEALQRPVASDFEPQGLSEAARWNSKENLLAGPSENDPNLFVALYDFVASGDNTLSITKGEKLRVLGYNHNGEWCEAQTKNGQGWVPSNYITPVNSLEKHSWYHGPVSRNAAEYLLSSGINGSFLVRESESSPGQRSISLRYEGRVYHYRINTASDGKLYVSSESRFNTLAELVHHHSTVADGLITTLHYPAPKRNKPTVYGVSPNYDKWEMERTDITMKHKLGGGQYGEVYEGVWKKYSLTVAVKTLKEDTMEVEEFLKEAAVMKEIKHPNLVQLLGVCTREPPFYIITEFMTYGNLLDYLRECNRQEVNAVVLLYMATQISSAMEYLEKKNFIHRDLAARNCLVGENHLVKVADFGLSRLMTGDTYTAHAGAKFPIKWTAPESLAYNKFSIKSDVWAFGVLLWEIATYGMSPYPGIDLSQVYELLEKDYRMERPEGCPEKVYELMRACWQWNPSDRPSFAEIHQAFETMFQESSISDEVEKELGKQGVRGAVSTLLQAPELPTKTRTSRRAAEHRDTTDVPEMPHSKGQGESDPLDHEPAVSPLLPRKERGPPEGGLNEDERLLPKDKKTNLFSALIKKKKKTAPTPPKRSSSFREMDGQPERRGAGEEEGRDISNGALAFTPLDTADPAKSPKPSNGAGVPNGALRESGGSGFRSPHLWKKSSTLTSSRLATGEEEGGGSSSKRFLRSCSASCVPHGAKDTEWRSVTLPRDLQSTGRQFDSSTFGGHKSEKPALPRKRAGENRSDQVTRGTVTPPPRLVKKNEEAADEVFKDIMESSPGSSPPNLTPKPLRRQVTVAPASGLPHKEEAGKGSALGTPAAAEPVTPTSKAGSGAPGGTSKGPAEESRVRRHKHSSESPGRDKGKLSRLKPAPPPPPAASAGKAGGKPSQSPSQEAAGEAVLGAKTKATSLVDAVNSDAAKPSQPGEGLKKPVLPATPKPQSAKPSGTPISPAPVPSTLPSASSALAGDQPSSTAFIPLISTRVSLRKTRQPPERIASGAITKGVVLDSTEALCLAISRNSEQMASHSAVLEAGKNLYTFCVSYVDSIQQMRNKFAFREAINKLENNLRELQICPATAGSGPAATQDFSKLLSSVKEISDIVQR

PIK3CA(H1047L) = target: T2, PIK3CA(H1047L) (Homo sapiens, UniProt P42336, H1047L); test: KINOMEscan; assay type: binding; settings: read-out: % Ctrl
T2 construct: purchased DiscoveRx KINOMEscan

PIK3CB = target: T3, PIK3CB (Homo sapiens, UniProt P42338); test: KINOMEscan; assay type: binding; settings: read-out: % Ctrl
T3 construct: purchased DiscoveRx KINOMEscan

INSRR = target: T4, INSRR (Homo sapiens, UniProt P14616); test: KINOMEscan; assay type: binding; settings: read-out: % Ctrl
T4 construct: purchased DiscoveRx KINOMEscan
T4 sequence (P14616 27-1297): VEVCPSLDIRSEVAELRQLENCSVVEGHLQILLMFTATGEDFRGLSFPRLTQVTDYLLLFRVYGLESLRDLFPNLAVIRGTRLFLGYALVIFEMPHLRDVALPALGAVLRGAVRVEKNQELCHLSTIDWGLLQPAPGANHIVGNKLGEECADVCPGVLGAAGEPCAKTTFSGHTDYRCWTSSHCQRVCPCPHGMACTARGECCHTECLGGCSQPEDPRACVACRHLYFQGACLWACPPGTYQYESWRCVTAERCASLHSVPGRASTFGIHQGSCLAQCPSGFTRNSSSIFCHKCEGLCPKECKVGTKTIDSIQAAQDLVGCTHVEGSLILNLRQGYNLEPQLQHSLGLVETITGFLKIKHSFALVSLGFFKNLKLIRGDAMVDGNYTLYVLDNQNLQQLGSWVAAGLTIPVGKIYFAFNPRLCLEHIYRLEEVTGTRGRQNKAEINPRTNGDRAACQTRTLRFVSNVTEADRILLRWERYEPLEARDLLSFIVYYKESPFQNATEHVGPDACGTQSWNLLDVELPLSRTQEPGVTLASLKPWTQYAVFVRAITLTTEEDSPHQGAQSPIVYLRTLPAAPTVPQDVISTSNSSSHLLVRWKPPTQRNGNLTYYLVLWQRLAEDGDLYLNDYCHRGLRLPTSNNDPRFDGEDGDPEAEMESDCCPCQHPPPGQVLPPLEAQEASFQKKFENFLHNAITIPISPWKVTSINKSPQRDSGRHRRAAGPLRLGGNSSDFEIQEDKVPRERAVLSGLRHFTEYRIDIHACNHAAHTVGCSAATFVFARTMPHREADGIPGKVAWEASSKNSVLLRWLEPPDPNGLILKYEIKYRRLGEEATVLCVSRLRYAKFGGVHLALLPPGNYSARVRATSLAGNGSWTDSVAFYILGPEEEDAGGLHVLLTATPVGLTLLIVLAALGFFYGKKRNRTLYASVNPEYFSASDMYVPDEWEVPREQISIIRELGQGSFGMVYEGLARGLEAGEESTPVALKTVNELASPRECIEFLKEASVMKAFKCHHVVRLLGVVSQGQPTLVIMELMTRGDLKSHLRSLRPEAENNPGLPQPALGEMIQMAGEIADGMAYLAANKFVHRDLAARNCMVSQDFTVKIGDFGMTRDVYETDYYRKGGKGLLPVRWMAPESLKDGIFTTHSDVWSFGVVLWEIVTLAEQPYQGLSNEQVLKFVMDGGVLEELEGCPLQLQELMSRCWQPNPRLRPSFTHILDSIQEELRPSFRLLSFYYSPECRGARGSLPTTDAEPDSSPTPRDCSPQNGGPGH

IRAK4 = target: T5, IRAK4 (Homo sapiens, UniProt Q9NWZ3); test: KINOMEscan; assay type: binding; settings: read-out: % Ctrl
T5 construct: purchased DiscoveRx KINOMEscan
T5 sequence (Q9NWZ3 whole entry): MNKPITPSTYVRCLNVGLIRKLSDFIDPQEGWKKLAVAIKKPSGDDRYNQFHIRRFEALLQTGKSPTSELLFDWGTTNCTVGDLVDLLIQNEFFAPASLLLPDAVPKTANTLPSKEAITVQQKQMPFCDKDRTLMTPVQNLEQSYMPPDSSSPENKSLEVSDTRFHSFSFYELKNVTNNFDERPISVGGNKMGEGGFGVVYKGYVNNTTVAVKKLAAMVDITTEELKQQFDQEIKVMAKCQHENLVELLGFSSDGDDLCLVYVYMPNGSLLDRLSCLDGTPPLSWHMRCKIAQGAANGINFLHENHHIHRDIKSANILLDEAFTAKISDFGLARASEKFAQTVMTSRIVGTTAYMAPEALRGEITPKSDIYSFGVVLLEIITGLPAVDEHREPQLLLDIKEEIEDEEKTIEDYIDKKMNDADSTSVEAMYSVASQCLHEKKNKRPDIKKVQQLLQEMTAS

CDC2L5 = target: T6, CDC2L5 (Homo sapiens, UniProt Q14004); test: KINOMEscan; assay type: binding; settings: read-out: % Ctrl
T6 construct: purchased DiscoveRx KINOMEscan
Protocol: (§1) The KINOMEscan ^TM screening platform employs an active site-directed competition binding assay to quantitatively measure interactions between test compound and 468 human kinases and disease relevant mutant variants. […] The assay was performed at DiscoveRx Corporation.

PRP4 = target: T7, PRP4 (Homo sapiens, UniProt Q13523); test: KINOMEscan; assay type: binding; settings: read-out: % Ctrl
T7 construct: purchased DiscoveRx KINOMEscan
Protocol: as §1

CDC2L1 = target: T8, CDC2L1 (Homo sapiens, UniProt P21127); test: KINOMEscan; assay type: binding; settings: read-out: % Ctrl
T8 construct: purchased DiscoveRx KINOMEscan
T8 sequence (P21127 whole entry): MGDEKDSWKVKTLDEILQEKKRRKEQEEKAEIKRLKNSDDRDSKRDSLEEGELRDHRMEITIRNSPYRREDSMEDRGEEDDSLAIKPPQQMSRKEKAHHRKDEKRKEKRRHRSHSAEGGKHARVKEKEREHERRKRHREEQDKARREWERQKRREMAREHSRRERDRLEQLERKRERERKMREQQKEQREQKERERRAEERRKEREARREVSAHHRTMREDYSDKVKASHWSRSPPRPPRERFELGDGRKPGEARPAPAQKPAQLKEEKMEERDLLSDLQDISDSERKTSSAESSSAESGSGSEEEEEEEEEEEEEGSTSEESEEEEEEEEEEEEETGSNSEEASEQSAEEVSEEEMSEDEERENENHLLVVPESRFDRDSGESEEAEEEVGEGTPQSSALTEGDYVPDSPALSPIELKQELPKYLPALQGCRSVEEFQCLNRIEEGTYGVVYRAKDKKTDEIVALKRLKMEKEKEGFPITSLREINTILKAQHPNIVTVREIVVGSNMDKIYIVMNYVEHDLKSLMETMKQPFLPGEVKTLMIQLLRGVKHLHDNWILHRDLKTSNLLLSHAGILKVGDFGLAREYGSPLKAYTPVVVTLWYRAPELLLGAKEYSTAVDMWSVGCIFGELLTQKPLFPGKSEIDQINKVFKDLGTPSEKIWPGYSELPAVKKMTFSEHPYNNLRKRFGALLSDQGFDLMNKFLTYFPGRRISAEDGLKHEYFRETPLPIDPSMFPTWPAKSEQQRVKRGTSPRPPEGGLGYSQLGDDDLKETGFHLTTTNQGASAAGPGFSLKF

CDK2 = target: T9, CDK2 (Homo sapiens, UniProt P24941); test: KINOMEscan; assay type: binding; settings: read-out: % Ctrl
T9 construct: purchased DiscoveRx KINOMEscan

LOK = target: T10, LOK (Homo sapiens, UniProt O94804); test: KINOMEscan; assay type: binding; settings: read-out: % Ctrl
T10 construct: purchased DiscoveRx KINOMEscan

MARK2 = target: T11, MARK2 (Homo sapiens, UniProt Q7KZI7); test: KINOMEscan; assay type: binding; settings: read-out: % Ctrl
T11 construct: purchased DiscoveRx KINOMEscan

SRPK2 = target: T12, SRPK2 (Homo sapiens, UniProt P78362); test: KINOMEscan; assay type: binding; settings: read-out: % Ctrl
T12 construct: purchased DiscoveRx KINOMEscan
T12 sequence (P78362 whole entry): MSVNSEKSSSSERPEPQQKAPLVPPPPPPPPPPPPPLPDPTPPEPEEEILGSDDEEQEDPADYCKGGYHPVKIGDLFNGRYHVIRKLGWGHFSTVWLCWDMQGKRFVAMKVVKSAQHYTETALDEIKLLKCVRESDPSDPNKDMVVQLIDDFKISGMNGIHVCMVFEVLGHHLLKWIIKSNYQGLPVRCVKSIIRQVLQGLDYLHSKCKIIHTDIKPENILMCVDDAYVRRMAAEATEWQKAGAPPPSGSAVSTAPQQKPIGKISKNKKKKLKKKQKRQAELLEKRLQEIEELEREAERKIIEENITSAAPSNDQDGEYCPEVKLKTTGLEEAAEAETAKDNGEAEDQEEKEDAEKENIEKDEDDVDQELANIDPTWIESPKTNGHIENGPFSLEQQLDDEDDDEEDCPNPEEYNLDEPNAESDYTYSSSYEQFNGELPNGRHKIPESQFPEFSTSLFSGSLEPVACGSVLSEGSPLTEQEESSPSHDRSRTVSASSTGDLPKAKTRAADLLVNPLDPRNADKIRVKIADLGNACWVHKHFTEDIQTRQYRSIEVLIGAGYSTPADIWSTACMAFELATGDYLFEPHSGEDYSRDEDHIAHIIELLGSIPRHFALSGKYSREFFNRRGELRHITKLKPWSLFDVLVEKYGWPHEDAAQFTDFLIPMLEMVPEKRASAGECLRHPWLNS

[1] = target: T13, EGFR(L747-E749del, A750P) (Homo sapiens, UniProt P00533, A750P/DEL747-749); test: KINOMEscan; assay type: binding; settings: read-out: % Ctrl
T13 construct: purchased DiscoveRx KINOMEscan
T13 sequence (P00533 with tags, fused parts or gaps DEL747-749/A750P limits assumed): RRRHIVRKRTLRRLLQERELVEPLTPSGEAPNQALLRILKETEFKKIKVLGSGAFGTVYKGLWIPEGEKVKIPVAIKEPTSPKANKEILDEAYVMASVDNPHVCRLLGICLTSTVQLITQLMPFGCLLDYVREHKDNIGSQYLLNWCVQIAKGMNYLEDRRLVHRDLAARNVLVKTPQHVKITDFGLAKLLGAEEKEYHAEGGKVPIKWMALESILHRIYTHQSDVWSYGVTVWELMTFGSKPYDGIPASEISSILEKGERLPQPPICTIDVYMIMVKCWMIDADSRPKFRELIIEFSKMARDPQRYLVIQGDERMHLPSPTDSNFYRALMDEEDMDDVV

EPHA3 = target: T14, EPHA3 (Homo sapiens, UniProt P29320); test: KINOMEscan; assay type: binding; settings: read-out: % Ctrl
T14 construct: purchased DiscoveRx KINOMEscan

VEGFR2 = target: T15, VEGFR2 (Homo sapiens, UniProt P35968); test: KINOMEscan; assay type: binding; settings: read-out: % Ctrl
T15 construct: purchased DiscoveRx KINOMEscan

ERK2 = target: T16, ERK2 (Homo sapiens, UniProt P28482); test: KINOMEscan; assay type: binding; settings: read-out: % Ctrl
T16 construct: purchased DiscoveRx KINOMEscan
T16 sequence (P28482 whole entry): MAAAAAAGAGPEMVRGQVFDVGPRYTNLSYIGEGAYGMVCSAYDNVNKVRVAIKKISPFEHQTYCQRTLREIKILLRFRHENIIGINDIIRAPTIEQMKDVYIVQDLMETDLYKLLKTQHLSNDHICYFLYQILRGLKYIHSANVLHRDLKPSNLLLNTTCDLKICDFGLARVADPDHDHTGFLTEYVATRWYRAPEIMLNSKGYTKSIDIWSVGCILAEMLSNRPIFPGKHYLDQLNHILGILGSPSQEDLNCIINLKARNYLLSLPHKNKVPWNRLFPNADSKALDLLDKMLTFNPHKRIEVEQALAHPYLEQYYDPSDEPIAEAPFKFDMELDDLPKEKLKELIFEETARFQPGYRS

For `COc1nc2ccc(NCC3CCN(C)CC3)nn2c1C(=O)Nc1cccc(OC(F)(F)F)c1` [Cpd 1], the EC50 (PDAC1 3D spheres) was ~2.91 µM.
With `CN1CCC(CNc2ccc3ncc(C(=O)Nc4cccc(OC(F)(F)F)c4)n3n2)CC1` [Cpd 2] the remaining binding at 1 µM (ABL1-nonP) was 100%, the remaining binding at 1 µM (PIK3CA(H1047L)) was 93% and the remaining binding at 1 µM (PIK3CB) was 91%. The remaining binding at 1 µM (INSRR) was 94%, the remaining binding at 1 µM (IRAK4) was 100% and the remaining binding at 1 µM (CDC2L5) was 100%. It also gave a remaining binding at 1 µM (PRP4) of 100%, a remaining binding at 1 µM (CDC2L1) of 100% and a remaining binding at 1 µM (CDK2) of 100%. It also gave a remaining binding at 1 µM (LOK) of 90%, a remaining binding at 1 µM (MARK2) of 96% and a remaining binding at 1 µM (SRPK2) of 94%. The remaining binding at 1 µM [1] was 84%, the remaining binding at 1 µM (EPHA3) was 92% and the remaining binding at 1 µM (VEGFR2) was 100%. For the same compound, the remaining binding at 1 µM (ERK2) was 100%.
